Data reported in US12636299B2, “Terpenoid derivatives, pharmaceutical preparations containing these derivatives and their use in neuroprotection” (UNIVERZITA PALACKEHO V OLOMOUCI, priority 2020, dated 2026).

Tests used:
[1] = tested on: SH-SY5Y human neuroblastoma cell line; test: Cytotoxicity, Calcein AM viability assay on neuron-like SH-SY5Y cells; type: cell-based; conditions: 24 h
Experimental: The SH-SY5Y human neuroblastoma cell line obtained from ECACC (The European Collection of Authenticated Cell Cultures) was cultivated in Dulbecco's modified Eagle's Medium and Ham's F12 Nutrient Mixture (DMEM:F-12, 1:1), supplemented with 10% fetal bovine serum (FBS) and 1% penicillin and streptomycin at 37° C. in a humidified atmosphere 5% CO2, 95% humidity in passage limit up to ECACC+20. The assay was performed in 96-well microplate with 7000 SH-SY5Y cells per well. After 48 h, old DMEM/F12 media was removed by fresh media containing tested compounds at 0.1, 1 and 10 μM concentrations for 24 h. Glial cell line A-172 purchased from ATCC and grown in same conditions as SH-SY5Y cell line. A-172 cells were seeded in density 2000 cells per well and growing medium was replaced by treatment medium containing tested compounds in 0.1, 1 and 10 μM concentration; or in higher concentrations for R-LA or NAC positive controls for 48 hours. All tested compounds dissolved in DMSO were added into the medium. The maximum concentration of DMSO in media was kept below 0.1% (v/v). The cell viability was measured by Calcein AM (1 mg/ml ThermoFisher) viability assay. Solution of Calcein AM in PBS (0.75 μM) was pipetted to cells and incubated for 50 min. After that the fluorescence was measured at 488/517 nm (excitation/emission) using microplate reader Infinite M200 (TECAN). Calcein AM assay is based on the dye-intracellular-esterase cleavage of non-fluorescent dye (Calcein AM) by living cells to fluorescent dye (Calcein), while dying cells lose such ability. The values in Table 2 show the % of viability compared to control for all tested compounds. The results from DMSO control (medium with DMSO, <0.1% (v/v)) was postulated as 100% viability (see the first line of Table 2).

glial A-172 cells [2] = test: Cytotoxicity, Calcein AM viability assay on glial A-172 cells; type: cell-based, human; conditions: NAC at 1000 μM
Experimental: The assay was performed in 96-well microplate with 7000 SH-SY5Y cells per well. After 48 h, old DMEM/F12 media was removed by fresh media containing tested compounds at 0.1, 1 and 10 μM concentrations for 24 h. Glial cell line A-172 purchased from ATCC and grown in same conditions as SH-SY5Y cell line. […] All tested compounds dissolved in DMSO were added into the medium. The maximum concentration of DMSO in media was kept below 0.1% (v/v). The cell viability was measured by Calcein AM (1 mg/ml ThermoFisher) viability assay. Solution of Calcein AM in PBS (0.75 μM) was pipetted to cells and incubated for 50 min. After that the fluorescence was measured at 488/517 nm (excitation/emission) using microplate reader Infinite M200 (TECAN). Calcein AM assay is based on the dye-intracellular-esterase cleavage of non-fluorescent dye (Calcein AM) by living cells to fluorescent dye (Calcein), while dying cells lose such ability.

[3] = tested on: human neuroblastoma cell line SH-SY5Y; test: Viability of differentiated SH-SY5Y in salsolinol-induced model of PD (Calcein AM); type: cell-based; conditions: for Neuroprotective effect (% of control): difference between 800 μM SAL and co-treatment group means, 24 hours; for effect on SH-SY5Y viability in salsolinol model, in words: 800 μM salsolinol, comparison with NAC
Experimental: Similarly, as in previous “Safety test”, the SH-SY5Y cells were seeded at density 7000 cells/well. After 48 h differentiation, old 1% DMEM/F12 media was replaced by fresh media containing 800 μM salsolinol (SAL) and tested compounds in 0.1, 1 and 10 μM concentrations. N-acetylcystein were chosen as positive control. After 24 hours, the cell viability was measured by Calcein AM viability assay. The values in Table 2 show % of viability of all tested compounds relative to control. The control (medium with DMSO, <0.1% (v/v)) was postulated as 100% viability (see the first line of the table), while the SAL exposure lead to decrease of viability to 65.4±0.97%.

caspase-3,7 activity = test: Caspase-3,7 activity in salsolinol-induced model of PD on SH-SY5Y (Ac-DEVD-AMC); type: cell-based, human; conditions: for Caspase-3,7 activity (% of 800 μM SAL control): percentages of control (800 μM SAL = 100), 24 hour co-treatment; for reduction of caspase-3,7 activity, in words: 800 μM SAL, compounds 3 and 4 at 10 μM compared with NAC; for efficacy relative to positive controls (by used concentration): caspase-3,7 activity, salsolinol model
Experimental: Similarly, as shown in previous assay, cells grew on 96 multiwell plates at density 20000 cells per well underwent differentiation and treatment procedure for salsolinol model. After 24 hour co-treatment with salsolinol, caspase-3,7 (casp-3,7) activity as marker of apoptosis was quantified by its substrate Ac-DEVD-AMC according to Carrasco et al. (2003, BioTechniques, 34, 1064-1067). In this model, overall casp-3,7 activity induced by 800 μM SAL was consider as 100% and thus the reduction in casp-3,7 was observed after treatment with the protective terpenoid derivatives. As shown in Table 4 and FIG. 2, 800 μM SAL induced 2.9-fold increase.

[4] = tested on: human neuron-like SH-SY5Y cells; test: 3NPA-induced model of Huntington's disease, neuron-like SH-SY5Y cells; type: cell-based; conditions: difference to 20 mM 3NPA, 48 h
Experimental: (§1) Before application of toxin 3-nitropropionic acid (3NPA) for mimicking Huntington's disease, the 3NPA was dissolved in water and neutralized by sodium hydroxide. SH-SY5Y cells were seeded in the same density and differentiated by the procedure shown above. Astrocyte cells A-172 were also seeded as described in previous section. Both cell lines were co-treated by 3NPA (20 mM for SH-SY5Y cells, […]) and tested compounds at 0.1, 1 and 10 μM concentration for 48 h.

astrocyte A-172 cells = test: 3NPA-induced model of Huntington's disease, astrocyte A-172 cells; type: cell-based, human; conditions: for Astro-protective effect (% of control): difference to 10 mM 3NPA, 48 h
Experimental: as §1

[5] = tested on: superoxide radical formation; test: Oxidative stress (superoxide radical formation, DHE) in 3NPA-induced model on SH-SY5Y; type: cell-based, human; conditions: for Superoxide radical formation (oxidative stress) %: 20 mM 3NPA = 100%, 24 hours
Experimental: Similarly, to previous assay, cells grown on 96-multiwell plates at density 20000 cells per well underwent differentiation and treatment procedure with 3-nitropropionic acid (3NPA) in this model. After 24 hours of co-treatment with 20 mM 3NPA, superoxide radical's formation as a marker of oxidative stress was quantified by dihydroethidium according to Kim et al. (2017, J. Med. Food, 20, 140-151). Briefly, neuron-like SH-SY5Y cells were centrifuged at 500 g for 5 min and 30 s, then media were replaced by 10 μM DHE PBS solution and kept at room temperature for 30 min. After that, DHE was read at 500 nm/580 nm (excitation/emission) by Infinite M200 Pro (Tecan) microplate reader. DHE is cell permeable dye which is selective for superoxide radical detection. Overall oxidative stress achieved by 20 mM 3NPA was consider as 100% and thus the reduction in superoxide radical's formation (OS reducing effect) was determined. As shown in Table 6 and FIG. 2, 20 mM 3NPA induced 2.7-fold increase in superoxide radical's formation.

glial A-172 cells [6] = test: Cytotoxicity, Calcein AM viability assay on glial A-172 cells; type: cell-based, human; conditions: 48 hours

SMILES | viability, percentage of DMSO control ([1]; 0.1 μM) [%] | viability, percentage of DMSO control ([1]; 1 μM) [%] | viability, percentage of DMSO control ([1]; 10 μM) [%] | effect on viability of astrocytes, in words (glial A-172 cells [2]) | Neuroprotective effect (% of control) ([3]; 0.1 μM) | Neuroprotective effect (% of control) ([3]; 1 μM) | Neuroprotective effect (% of control) ([3]; 10 μM) | effect on SH-SY5Y viability in salsolinol model, in words [3] | Caspase-3,7 activity (% of 800 μM SAL control) (caspase-3,7 activity; 1 μM) [%] | Caspase-3,7 activity (% of 800 μM SAL control) (caspase-3,7 activity; 10 μM) [%] | reduction of caspase-3,7 activity, in words (caspase-3,7 activity) | efficacy relative to positive controls (by used concentration) (caspase-3,7 activity) [fold] | Neuro-protective effect (% of control) ([4]; 0.1 μM) | Neuro-protective effect (% of control) ([4]; 1 μM) | Neuro-protective effect (% of control) ([4]; 10 μM) | Astro-protective effect (% of control) (astrocyte A-172 cells; A-172, 0.1 μM) | Astro-protective effect (% of control) (astrocyte A-172 cells; A-172, 1 μM) | Astro-protective effect (% of control) (astrocyte A-172 cells; A-172, 10 μM) | Superoxide radical formation (oxidative stress) % ([5]; 0.1 μM) [%] | Superoxide radical formation (oxidative stress) % ([5]; 1 μM) [%] | other results
C=C(C(=O)OCc1ccncc1)C1CCC2(COC(C)=O)CCC3(C)C(CCC4C5(C)CCC(OC(C)=O)C(C)(C)C5CCC43C)C12 (stereo not drawn) [Compound 3, Pyridin-4-yl-methyl 3β,28-bis(acetyloxy)lup-20(30)-en-29-oate] | 115.8 | 145.0 | 137.4 | slight decrease in percentage of living cells | N/A (N/A = no protection) | 33.10 % of control | 21.50 % of control | better effect than 1000 μM NAC | 73.7 | 55.6 | comparable | 10 | N/A (N/A = no protection) | 39.96 % of control | 24.13 % of control | N/A (N/A = no protection) | 11.98 % of control | N/A (N/A = no protection) | 88.4 | 79.0 | protective effect on astrocytes in 3NPA model, in words (astrocyte A-172 cells; A-172 cells, comparison with R-LA): positive effect comparable to R-LA control; OS reducing effect, in words ([5]; 10 μM, comparison with 100 μM NAC): even stronger activity toward oxidative stress; Superoxide radical formation (oxidative stress) % ([5]; 10 μM): 81.9%; viability, percentage of DMSO control (glial A-172 cells [6]; 0.1 μM): 95.5%; viability, percentage of DMSO control (glial A-172 cells [6]; 1 μM): 98.2%; viability, percentage of DMSO control (glial A-172 cells [6]; 10 μM): 71.7%
C=C(C(=O)OCc1cccnc1)C1CCC2(COC(C)=O)CCC3(C)C(CCC4C5(C)CCC(OC(C)=O)C(C)(C)C5CCC43C)C12 (stereo not drawn) [Compound 4, Pyridin-3-yl-methyl (3β)-3,28-bis(acetyloxy)lup-20(30)-en-29-oate] | 99.9 | 146.1 | 142.5 | slight decrease in percentage of living cells | N/A (N/A = no protection) | 33.70 % of control | 33.99 % of control | better effect than 1000 μM NAC | 67.2 | 46.0 | better | 10 | N/A (N/A = no protection) | 32.36 % of control | 28.98 % of control | 7.38 % of control | 3.25 % of control | N/A (N/A = no protection) | 84.7 | 78.5 | Superoxide radical formation (oxidative stress) % ([5]; 10 μM): 65.8%; viability, percentage of DMSO control (glial A-172 cells [6]; 0.1 μM): 104.2%; viability, percentage of DMSO control (glial A-172 cells [6]; 1 μM): 97.9%; viability, percentage of DMSO control (glial A-172 cells [6]; 10 μM): 83.6%
